Earlier results, collected in patent publication US20210228408A1, “Glaucoma Treatment Via Intracameral Ocular Implants” (Allergan, Inc., priority 2015, published 2021).

What was measured:
[1] = biological target: Cloned Human Ciliary Body FP Prostaglandin Receptor (Homo sapiens, UniProt P43088); conditions: read-out: Functional Potency, EC50
[2] = biological target: prostaglandin F (FP) receptor (Homo sapiens, UniProt P43088); conditions: read-out: Most potent measured EC50 on FP receptor
Sequence of prostaglandin F (FP) receptor (P43088 whole entry): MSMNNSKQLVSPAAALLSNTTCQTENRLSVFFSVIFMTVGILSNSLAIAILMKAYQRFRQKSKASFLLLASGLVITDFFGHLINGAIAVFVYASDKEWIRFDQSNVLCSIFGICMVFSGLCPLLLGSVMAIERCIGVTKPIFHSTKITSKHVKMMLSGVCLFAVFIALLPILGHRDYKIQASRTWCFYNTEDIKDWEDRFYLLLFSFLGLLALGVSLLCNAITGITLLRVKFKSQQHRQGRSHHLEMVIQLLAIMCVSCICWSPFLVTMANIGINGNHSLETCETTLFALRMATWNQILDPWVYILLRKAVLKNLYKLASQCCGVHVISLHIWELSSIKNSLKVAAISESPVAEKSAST

Sequence of Cloned Human Ciliary Body FP Prostaglandin Receptor (P43088 whole entry): as above

Row | Compound | EC50 [1] [nM] | EC50 [2] [nM]
1 | O=C(O)CCC/C=C\C[C@@H]1[C@@H](/C=C/[C@@H](O)COc2cccc(C(F)(F)F)c2)[C@H](O)C[C@@H]1O [Travoprost acid] | 3.2 | 1.4
2 | O=C(O)CCC/C=C\C[C@@H]1[C@@H](/C=C/[C@@H](O)CCc2ccccc2)[C@H](O)C[C@@H]1O [Bimatoprost acid] | 5.8 | ~3.3
3 | CC(C)OC(=O)CCC/C=C\C[C@@H]1[C@@H](/C=C/[C@@H](O)COc2cccc(C(F)(F)F)c2)[C@H](O)C[C@@H]1O [Travoprost, propan-2-yl 7-[3,5-dihydroxy-2-[3-hydroxy-4-[3-(trifluoromethyl)phenoxy]-but-1-enyl]-cyclopentyl]hept-5-enoate] |  | ~1.4
